Test results taken from US9132130B2, “Purine derivative and antitumor agent using same” (ZENYAKU KOGYO KABUSHIKI KAISHA, priority 2009, dated 2015).

What was measured:
[1] = system: P388 cells (mouse leukemia cells); assay: in vitro antitumor activity test, P388 cells, XTT colorimetry; type: cell-based; conditions: cultured 72 hours
Summary of the method: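 Cells from DBA/2 mouse ascites, in RPMI 1640 with 10% FBS and 25 mM HEPES, seeded from a 4×10^4 cells/ml suspension. Equal volume added of compound solutions prepared at 2.0×10^−9 to 2.0×10^−4 M (pre-mixing). After 72 h at 37° C, 5% CO2, growth read by XTT; GI50 (μM) is the concentration giving 50% growth inhibition.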

[2] = system: MCF-7 cells (human breast cancer cells); assay: antitumor activity against breast cancer cells, cell counting; type: cell-based; conditions: MCF7; MCF-7 human breast cancer cells, cultured 72 hours, cell counter
Protocol: MCF-7 cells (human breast cancer cells) subcultured in a culture medium composed of a MEM medium added with 10% fetal bovine serum, 25 mM HEPES and 0.1 mg/ml kanamycin under the conditions of 37° C. and 5% carbon dioxide gas were made into single floating cells by treating with trypsin/EDTA, and a single cell suspension of 4×10^4 cells per 1 ml was prepared using the MEM medium (added with 10% fetal bovine serum, 25 mM HEPES and 0.1 mg/ml kanamycin). After dissolving the test substances (Compound 2 and Compound 7) in DMSO, they were diluted with the MEM medium (added with 10% fetal bovine serum, 25 mM HEPES and 0.1 mg/ml kanamycin) and prepared so that the concentrations were 6.4×10^−8 to 2.0×10^−5 M.
0.1 ml of the cell suspension was placed into each well of a 96-well microplate, cultured for 24 hours to allow the cells to adhere to the microplate, then 0.1 ml of the sample solutions were added, and cultured for 72 hours at 37° C. in 5% carbon dioxide gas.
Afterwards, the cells in each well were made single floating cells by treating with trypsin/EDTA, and the number of cells was counted using a cell counter to obtain the growth inhibition rate at various sample concentrations and calculate the concentrations at which growth was inhibited by 50% (GI50 values [μM]).

[3] = system: WiDr cells (human colon cancer cells); assay: in vitro antitumor activity test, WiDr cells, XTT colorimetry; type: cell-based; conditions: cultured 72 hours
Summary of the method: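 Human colon cancer cells in MEM/10% FBS were seeded 3×10^4 cells/ml and allowed to adhere for 24 h, then exposed to compounds prepared at 2.0×10^−9 to 2.0×10^−4 M in RPMI 1640 for 72 h at 37° C, 5% CO2. Growth was read by XTT colorimetry and GI50 (μM) calculated.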

[4] = system: B16F10 cells (mouse melanoma [malignant melanoma] cells); assay: in vitro antitumor activity test, B16F10 cells, XTT colorimetry; type: cell-based; conditions: B16-F10, cultured 72 hours
Summary of the method: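 B16F10 mouse melanoma cells were seeded from a 1×10^4 cells/ml suspension and allowed to adhere for 24 h. Compounds in DMSO were diluted in RPMI 1640 with 10% FBS to 2.0×10^−9 to 2.0×10^−4 M and incubated 72 h at 37° C, 5% CO2. XTT colorimetry gave GI50 (μM).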

[5] = system: PC-3 cells (human prostate cancer cells); assay: in vitro antitumor activity test, PC-3 cells, XTT colorimetry; type: cell-based; conditions: PC-3 human prostate cancer cells, cultured 72 hours
Summary of the method: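 PC-3 human prostate cancer cells, seeded at 2×10^4 cells/ml and allowed to adhere for 24 h, were exposed 72 h at 37° C, 5% CO2 to compound diluted in RPMI 1640 with 10% FBS to 2.0×10^−9 to 2.0×10^−4 M (pre-addition solutions). Growth was measured by XTT colorimetry and GI50 (μM) calculated.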

[6] = system: A549 cells (human lung cancer cells); assay: in vitro antitumor activity test, A549 cells, XTT colorimetry; type: cell-based; conditions: cultured 72 hours
Summary of the method: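 Cells seeded at 2×10^4 cells/ml in MEM + 10% FBS, 25 mM HEPES, kanamycin, allowed to adhere 24 h, then exposed to compounds (DMSO stocks diluted in RPMI 1640; prepared at 2.0×10^−9 to 2.0×10^−4 M) for 72 h at 37 °C, 5% CO2. Growth inhibition read by XTT colorimetry; GI50 (μM) calculated.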

human lung cancer A549 = assay: in vivo antitumor activity, nude mice transplanted with human lung cancer A549; set-up: species or system BALB/c-nu/nu mice; conditions: 400 mg/kg intraperitoneally daily day 0 to day 13 (12 times), tumor volume at day 14
Protocol: Tumor tissue fragments of human lung cancer A549 (3 mm×3 mm×3 mm) were transplanted subcutaneously into the chests of six-week-old female BALB/c-nu/nu mice, and sample administration started when the tumor volume reached at least approximately 100 mm^3 (day 0). Compound 2 and Compound 7 were suspended in a 1% hydroxypropylcellulose (HPC [L]) solution using an agate mortar. 400 mg/kg of Compound 2 was orally administered daily from day 0 to day 13 (excluding day 3 and day 10, a total of 12 times). 400 mg/kg of Compound 7 was intraperitoneally administered daily from day 0 to day 13 (excluding day 4 and day 11, a total of 12 times). Tumor diameters were measured to calculate tumor volume (½×long diameter×short diameter×short diameter), and the tumor volume after 14 days (at day 14) from the start of sample administration was divided by the tumor volume at the start of the administration to calculate relative tumor growth rate. The percentage of the relative tumor growth rate of the control group with respect to the relative tumor growth rate of the group administered with Compound 2 or Compound 7 was taken as T/C (%).

Row | SMILES | GI50 [1] | GI50 [2] | GI50 [3] | GI50 [4] | GI50 [5] | GI50 [6] | T/C (human lung cancer A549)
1 | CCc1nc2c(N3CCN(N=O)CC3)nc(SCc3ccc(OC)cc3)nc2n1C [Compound 7, 8-ethyl-2-(4-methoxybenzylsulfanyl)-9-methyl-6-(4-nitrosopiperazin-1-yl)-9H-purine] | 120 nM | 130 nM | 250 nM | 340 nM | 140 nM | 130 nM | 55.4%
2 | CCOc1ccc(CSc2nc(N3CCOCC3)c3ncn(C)c3n2)cc1 [Compound 99, 2-(4-ethoxybenzylsulfanyl)-9-methyl-6-morpholino-9H-purine] | 960 nM |  | 1290 nM | 1980 nM | 5950 nM | 1180 nM | 
3 | COc1ccc(CSc2nc(N(C)OC)c3ncn(C)c3n2)cc1N [Compound 145, 2-(3-amino-4-methoxybenzylsulfanyl)-6-(N-methoxy-N-methylamino)-9-methyl-9H-purine] | < 40 nM |  | 810 nM | 190 nM | 130 nM | 80 nM | 
4 | COc1ccc(CSc2nc(N(C)C)c3ncn(C)c3n2)cc1 [Compound 21, 6-dimethylamino-2-(4-methoxybenzylsulfanyl)-9-methyl-9H-purine] | 100 nM |  | 140 nM | 340 nM | 140 nM | 220 nM | 
5 | CCc1nc2c(N3C=COCC3)nc(SCc3ccc(OC)c(F)c3)nc2n1C [Compound 157, 6-(2,3-dihydro[1,4]oxadin-4-yl)-8-ethyl-2-(3-fluoro-4-methoxybenzylsulfanyl)-9-methyl-9H-purine] | 40 nM |  | 80 nM | 80 nM | 90 nM | 60 nM | 
6 | COc1ccc(CSc2nc(N3CCOCC3)c3ncn(C)c3n2)cc1N [Compound 18, 2-(3-amino-4-methoxybenzylsulfanyl)-9-methyl-6-morpholino-9H-purine] | 350 nM |  | 3140 nM | 1090 nM | 690 nM | 950 nM | 
7 | CCc1nc2c(N3CCOCC3)nc(SCCCc3ccc(OC)cc3)nc2n1C [Compound 50, 8-ethyl-2-[3-(4-methoxyphenyl)propylsulfanyl]-9-methyl-6-morpholino-9H-purine] | 380 nM |  | 1020 nM | 1430 nM | 620 nM | 890 nM | 
8 | CCc1nc2c(N3CCN(N=O)C(C)C3)nc(SCc3ccc(OC)cc3)nc2n1C (stereo in doubt) [Compound 22, 8-ethyl-2-(4-methoxybenzylsulfanyl)-9-methyl-6-[(3S)-3-methyl-4-nitrosopiperazin-1-yl]-9H-purine] | 950 nM |  | 1190 nM | 1610 nM | 640 nM | 1250 nM | 
9 | CCc1nc2c(N3CCOCC3)nc(SCc3ccc(OC)c(C#N)c3)nc2n1C [Compound 51, 2-(3-cyano-4-methoxybenzylsulfanyl)-8-ethyl-9-methyl-6-morpholino-9H-purine] | 70 nM |  | 140 nM | 380 nM | 100 nM | 100 nM | 
10 | COc1ccc(CSc2nc(N(C)C)c3ncn(C)c3n2)cc1N [Compound 19, 2-(3-amino-4-methoxybenzylsulfanyl)-6-dimethylamino-9-methyl-9H-purine] | 320 nM |  | 4040 nM | 450 nM | 400 nM | 450 nM | 
11 | CCCn1c(CC)nc2c(N3CCOCC3)nc(SCc3ccc(OC)cc3)nc21 [Compound 6, 8-ethyl-2-(4-methoxybenzylsulfanyl)-6-morpholino-9-propyl-9H-purine] | 720 nM |  | 940 nM | 1160 nM | 600 nM | 870 nM | 
12 | Sc1ncnc2nc[nH]c12 [Compound A, 6-mercaptopurine, reference compound] | 22500 nM |  | 70000 nM | 22600 nM | > 100000 nM | > 100000 nM | 
13 | COc1ccc(CSc2nc(N3CC=CC3)c3ncn(C)c3n2)cc1[N+](=O)[O-] [Compound 142, 2-(4-methoxy-3-nitrobenzylsulfanyl)-9-methyl-6-(3-pyrrolin-1-yl)-9H-purine] | 50 nM |  | 1150 nM | 190 nM | 100 nM | 80 nM | 
14 | C=Cc1cc(CSc2nc(N3CCOCC3)c3nc(CC)n(C)c3n2)ccc1OC [Compound 79, 8-ethyl-2-(4-methoxy-3-vinylbenzylsulfanyl)-9-methyl-6-morpholino-9H-purine] | 1000 nM |  | 1300 nM | 1500 nM | 440 nM | 1400 nM | 
15 | CCN(C)c1nc(SCc2ccc(OC)c(F)c2)nc2c1ncn2C [Compound 82, 6-(N-ethyl-N-methylamino)-2-(3-fluoro-4-methoxybenzylsulfanyl)-9-methyl-9H-purine] | 110 nM |  | 210 nM | 300 nM | 300 nM | 140 nM | 
16 | CCc1nc2c(N3C=COCC3)nc(SCc3ccc(OC)cc3)nc2n1C [Compound 148, 6-(2,3-dihydro-[1,4]oxadin-4-yl)-8-ethyl-2-(4-methoxybenzylsulfanyl)-9-methyl-9H-purine] | 90 nM |  | 130 nM | 290 nM | 130 nM | 240 nM | 
